Data reported in US9642875B2, “Compounds and their effects on appetite control and insulin sensitivity” (priority 2012, dated 2017).
“Also recorded” adds a separate entry of the source. Read-outs that look alike come from different tables or passages of the source.

Tests used:
[1] = test system: Atopobium cluster (Ato291); assay: faecal batch culture fermentation with fluorescent in situ hybridisation; assay type: cell-based; conditions: between 10 and 34 h
Experimental: (§1) Faecal samples were obtained from three healthy human volunteers (one female and two males; age 30-50 years; BMI 25-31). Volunteers were excluded if they suffered from any gastrointestinal disorder (e.g. ulcerative colitis, Crohn's disease, irritable bowel syndrome, peptic ulcers and cancer) and/or had taken antibiotics in the six months preceding sample donation. Samples were kept under anaerobic conditions (10% H2, 10% CO2 and 80% N2) and used within a maximum of 30 minutes following collection. Samples were diluted 1/10 w/w in anaerobic PBS (0.1 mol/1 phosphate buffer solution, pH 7.4) and homogenised in a stomacher (Stomacher 400, Seward, West Sussex, UK) for 2 minutes at normal speed.
(§2) Sterile batch culture fermenters (150 ml working volume) were set up in parallel and aseptically filled with 135 ml pre-reduced, sterile basal culture medium (peptone water 2 g/1 (Oxoid), yeast extract 2 g/1 (Oxoid, Basingstoke, UK), NaCl 0.1 g/l, K2HPO4 0.04 g/l, KH2PO4 0.04 g/l, MgSO4.7H2O 0.01 g/l, CaCl2.6H2O 0.01, NaHCO3 2 g/l, Tween 80 2 ml (BDH, Poole, UK), haemin 0.05 g/1, vitamin K1 10 cysteine.HCl 0.5 g/1, bile salts 0.5 g/1). The fermenters were gassed overnight with O2 free N2. […] A substrate-free vessel was set up for each volunteer as the negative control.

[2] = test system: Bacteroides/Prevotella (Bac303); assay: as above; assay type: cell-based; conditions: all sampling points
Experimental: as §1, §2

[3] = assay type: in vivo, human
Experimental: Twenty healthy subjects (15 males and 5 females) were recruited for the food intake investigation. The mean (±SEM) age, weight and body mass index (BMI) was 31±2 years, 75.0±3.0 kg and 25.4±0.8 kg/m^2, respectively.
(§3) The inclusion criteria for the investigation were a BMI of 20 to 35 kg/m^2 and 21 to 65 years of age.
The study was performed in a randomized, double-blind, crossover manner, with each subject studied on two occasions >4 days apart. […] The amount of food was quantified preprandially and postprandially, and energy intake was calculated. […] In addition, VAS were also completed to assess the palatability of the standardized breakfast.
Differences in energy intake and incremental area under the curve (iAUC) for plasma hormone levels and VAS between trials were assessed using Paired Student's t tests. […] Significant effects were followed up by post hoc comparisons (Dunnett). P values<0.05 were considered statistically significant. Data are presented as means±SEM.

[4] = Source text: Healthy men and women aged 40-65 years, with a BMI of 25-40 kg/m^2 were recruited from the general public. Potential subjects were excluded if they had clinically significant illnesses (including type 1 or type 2 diabetes), were taking medication known to affect appetite and/or body weight, a weight loss of 3 kg or greater in the preceding two months, smoking, substance abuse, psychiatric illness, restrained eating (Dutch eating behavior questionnaire: male score >2.25; female score >2.80), and any abnormalities detected on physical examination, electrocardiography, or screening blood tests (measurement of complete blood count, electrolytes, fasting glucose, thyroid function and liver function). Women were ineligible if they were pregnant or breast-feeding. […] The study was carried out in accordance with the Declaration of Helsinki.
The study was conducted in a randomized, double-blind, placebo-controlled, parallel design. Two-day study visits were required at baseline (week 0) and after 24 weeks of dietary supplementation. On the day prior to each study visit, subjects were asked to consume a standard evening meal, fast overnight from 22:00 and to avoid strenuous physical activity and alcohol. All study visits commenced between 08:00 and 09:00. […] The dietary supplement was supplied to subjects in ready-to-use sachets and they were instructed to mix the contents into their normal diet once a day during the 24 week treatment period. All subjects were instructed to maintain their usual dietary and activity habits during the intervention period. […] After 8 and 16 weeks of the intervention period, subjects were invited to attend follow-up visits to record body weight and monitor compliance and gastrointestinal side-effects. After 24 weeks, measurements taken at baseline were repeated. Subjects returned all their used and unused sachets to estimate compliance. Symptom diary was also collected over the period of the study.
At study visits, a cannula was inserted into an antecubital vein and baseline blood samples were collected at −10 and 0 min to assess plasma concentrations of glucose, insulin, PYY and GLP-1. Following the 0 min sample, subjects were served a standardized breakfast (398 kcal; 71.2 g CHO, 7.9 g fat, 10.3 g protein). […] Postprandial blood samples were taken at 15, 30, 60, 90, 120, 180, 240 and 300 min and collected into heparin-coated tubes containing 0.2 ml of aprotinin (Bayer, UK). GLP-1- and PYY-like immunoreactivity was measured using specific and sensitive in-house radioimmunoassays. Insulin-like immunoreactivity was measured using an ultra-sensitive human insulin radioimmunoassay (Millipore) and plasma glucose was measured using an Abbott Architect ci8200 analyser (Abbott Diagnostics, USA). At 300 min subjects were offered a buffet lunch with food served in excess and subjects were asked to eat until they were comfortably full. The amount of food was quantified and energy intake calculated. Subjective hunger, satiety, and nausea were monitored with the use of 100 mm visual analog scales (VAS). Subjects were asked to complete the VAS before each blood sample. In addition, breath H2 was measured at 0, 60, 120, 180, 240 and 300 min (Bedfont Scientific, Kent UK) in a subset of each group (9 in the propionate ester group, 8 in the inulin control group).
Body composition was assessed using magnetic resonance imaging (MRI) and spectroscopy (MRS). […] Body weight was measured in all subjects to the nearest 0.1 kg (TBF-300, Tanita) and taken while subjects were wearing light clothing.

[5] = test system: Bifidobacterium spp (Bif164); assay: faecal batch culture fermentation with fluorescent in situ hybridisation; assay type: cell-based
Experimental: as §1
Sterile batch culture fermenters (150 ml working volume) were set up in parallel and aseptically filled with 135 ml pre-reduced, sterile basal culture medium (peptone water 2 g/1 (Oxoid), yeast extract 2 g/1 (Oxoid, Basingstoke, UK), NaCl 0.1 g/l, K2HPO4 0.04 g/l, KH2PO4 0.04 g/l, MgSO4.7H2O 0.01 g/l, CaCl2.6H2O 0.01, NaHCO3 2 g/l, Tween 80 2 ml (BDH, Poole, UK), haemin 0.05 g/1, vitamin K1 10 cysteine.HCl 0.5 g/1, bile salts 0.5 g/1). The fermenters were gassed overnight with O2 free N2. Propionate inulin ester and inulin control substrates ( 1/10 w/v) were added to their respective fermenters just prior to the addition of the faecal slurry. […]

[6] = assay type: in vivo, human; conditions: 10 g, 24 hour pooled urine, n=5
Experimental: The mean (±SEM) age, weight and body mass index (BMI) was 32±4 years, 75.0±4.0 kg and 25.0±1.3 kg/m^2, respectively.
as §3
Subjects were studied on four occasions one week apart. […] Cumulative ^13CO2 excretion was also calculated. Blood was collected serially throughout the study.
Plasma was collected at −15, 0, 15, 30, 60, 90, 120, 180, 240, 300, 360 min for analysis of ^13C propionate enrichment by GC-combustion-IRMS (GC-C-IRMS). Acetate ^13C enrichment was also measured in the same analysis as a control for dietary influence on SCFA ^13C enrichment and for evidence of inter-conversion between propionate and acetate. Data were expressed as δ^13C (per mil or ‰) which represents the change in the measured ratio in parts per thousand from the internationally accepted standard carbon Vienna Pee Dee Belemnite (VPDB). Urine was analyzed for ^13C propionate by GC-C-IRMS. Urine was collected and pooled from just before consumption of the propionate ester for a period of 24 hours. Two 25 ml aliquots were collected and stored at −20° C. until analysis. Isotopic enrichment was expressed as δ^13C (‰). SCFA concentrations (mmol/L) were measured relative to an internal standard (3-methyl valerate).

[7] = 10 g, 0-420 minute post oral administration, 20 subjects
[8] = 24 weeks vs baseline, fasting blood, listed as control

With inulin the “Ato291 labelled cells compared to baseline” value [1] was “increased significantly”, the “Bac303 labelled cells compared to baseline” value [2] was “significant increases” and the “fullness ratings, average iAUC” value [3, 7] was 26.6±2.9. The “hunger ratings, average iAUC” value [3, 7] was −24.3±4.7, the “pleasantness ratings, average iAUC” value [3, 7] was −26.6±4.6 and the “prospective food intake ratings, average iAUC” value [3, 7] was −19.9±3.6. For the same substance, the “sickness ratings, average iAUC” value [3, 7] was −1.6±1.4, the “glucose levels, average iAUC” value ([3]; 10 g, whole meal test) was 0.28±0.12 and the “insulin levels, average iAUC” value ([3]; 10 g, whole meal test) was 32.5±4.7. The “food intake during standardised ad libitum buffet meal” value ([3]; 7 hours after intake of 10 g supplement, 20 subjects, mean±SEM) was 1175 ± 104 kcal, the body weight gained ([4]; 10 g/day, after 24 weeks) was 0.38 ± 0.69 kg and the “breath hydrogen area under curve” value ([4]; 24 weeks) was 5000±1480. For the same substance, the fasting breath hydrogen ([4]; 24 weeks) was 19.1±7 ppm, the “fasting glucose, insulin, HbA1c and triglyceride concentrations” value ([4]; 24 weeks) was “no significant effect” and the alanine transaminase [4, 8] was “significantly reduced; also recorded: significant improvements”. The alkaline phosphatase [4, 8] was “significantly reduced; also recorded: significant improvements”, the total cholesterol [4, 8] was “significantly reduced; also recorded: significant improvements” and the “subjects with substantial weight gain (≧5% baseline weight)” value ([4]; 24 weeks, number of subjects) was 4 of 24. The “subjects with weight gain ≧3% baseline weight” value ([4]; 24 weeks, number of subjects) was 6 of 24, the “ratio of internal adipose tissue:subcutaneous adipose tissue, within group” value ([4]; 24 weeks, p=0.002) was “significantly increased” and the “internal adipose tissue, within group” value ([4]; 24 weeks, p=0.049) was “significantly increased”. The “subjects with substantial weight gain (≧5% baseline weight)” value ([4]; 24 weeks, proportion) was 17%, the “subjects with weight gain ≧3% baseline weight” value ([4]; 24 weeks, proportion) was 25% and the “breath hydrogen area under curve” value ([4]; baseline) was 2355±800. For the same substance, the fasting breath hydrogen ([4]; baseline) was 9±3 ppm, the “GLP-1 ΔAUC0-300 min” value ([4]; baseline (week 0)) was 3441 ± 843 pmol/L and the “food intake at buffet lunch” value ([4]; baseline (week 0)) was 678 ± 69 kcal. For the same substance, the “insulin response AUC0-300 min” value ([4]; baseline (week 0)) was 9285±882 μU/mL, the “plasma PYY ΔAUC0-300 min” value ([4]; baseline (week 0)) was 962 ± 869 pmol/L and the “glycemic response AUC0-300 min” value ([4]; baseline (week 0), standardized breakfast) was 1600 ± 51 pmol/L. For the same substance, the “plasma PYY and GLP-1 release, week 24 vs baseline” value ([4]; postprandial period, within group) was “unaffected”, the “GLP-1 ΔAUC0-300 min” value ([4]; week 24) was 2278 ± 1000 pmol/L and the “bloating and flatulence (side effect profile)” value ([4]; week 24) was “significant increase”. The “food intake at buffet lunch” value ([4]; week 24) was 651 ± 64 kcal, the “insulin response AUC0-300 min” value ([4]; week 24) was 8781±731 μU/mL and the “plasma PYY ΔAUC0-300 min” value ([4]; week 24) was 656 ± 880 pmol/L. For the same substance, the “glycemic response AUC0-300 min” value ([4]; week 24, standardized breakfast) was 1691 ± 54 pmol/L, the “reduction of food intake” value ([4]; week 24 vs baseline) was 4.0% and the “insulin response, week 24 vs baseline” value ([4]; within group) was “not significantly different”. For the same substance, the “postprandial glucose (glycemic) response, week 24 vs baseline” value ([4]; within group, listed as control) was “significantly greater; also recorded: significant deterioration”, the “Bif164 labelled cells compared to baseline” value ([5]; all time points (10, 24, 34, 48 h)) was “significantly increased” and the “Bif164 levels compared to propionate inulin ester cultures” value ([5]; throughout fermentation) was “significantly higher”. For the same substance, the “urine 13C propionate enrichment δ13C” value [6] was −23.3±1.8 ‰.
